# Data published in paper PMC6804243, “Small-Molecule Inhibition of UBE2T/FANCL-Mediated Ubiquitylation in the Fanconi Anemia Pathway” (ACS Chemical Biology, 2019).
# What was measured:
# [1] = system: mUb-FANCD2 (UBE2T and FANCL-dependent monoubiquitylation of FANCD2); assay: Immunoblot of mUb-FANCD2 formation in U2OS cells; assay type: cell-based; details: for level of mUb-FANCD2 in response to HU: CU1 200 μM or CU2 500 μM, 8 h; for level of mUb-FANCD2 in response to HU / level of mUb-FANCD2: HU 2.5 mM; for level of mUb-FANCD2: compound 100 μM, 1 h preincubation, 24 h
# Protocol: U2OS cells were treated with HU and the formation of mUb-FANCD2 in the presence of CU 1, CU2, and CU9 was evaluated relative to a DMSO control. Following a 1-h preincubation with the compounds, cells were treated with 2.5 mM of HU for 24 h. […] Accordingly, cells were treated with a higher concentration of compounds in further experiments.
# Figure 3 Cell-based assays with CU1 and CU2: (a) Western blot showing that the formation of mUb-FANCD2(*), in response to HU treatment (2.5 mM, 8 h), is impaired in U2OS cells in the presence of CU1 (200 μM) or CU2 (500 μM). Ratio = mUb-FANCD2/FANCD2 (normalized to DMSO control). mUb-FANCD2 was resolved on a separate gel. PARP1 was used as a loading control for each gel, as well as to assess apoptosis. (b) Quantification of the reduction in mUb-FANCD2, in response to HU treatment (2.5 mM, 8 h) in the presence of CU1 (200 μM) or CU2 (500 μM). Mean calculated from three independent experiments. (c) Western blot showing that formation of mUb-FANCD2 (denoted by an asterisk symbol, *) in response to cisplatin treatment (10 μM) for 6, 12, and 24 h is impaired in U2OS cells in the presence of CU2 (500 μM). Ratio = mUb-FANCD2/FANCD2 (normalized to DMSO control). (d) Cell cycle analyses based upon EdU incorporation in cells treated with HU (2.5 mM, 8 h) in the presence or absence of CU1 (200 μM) or CU2 (500 μM). HU treatment was used for gating purposes. […] TEXT PRINTED IN THE PICTURE: (d) DMSO: S-phase 42.7; G1 29.2; G2-M 27.8 | (d) HU: S-phase 0.24; G1 72.4; G2-M 22.9 | (d) CU1: S-phase 43.4; G1 26.8; G2-M 29.1 | (d) CU2: S-phase 39.7; G1 31.9; G2-M 28.2 DOUBTS OF THE COPYIST ABOUT THIS PICTURE: Panel d print is small, so these digits are best readings: DMSO G2-M 27.8 (8 or 6); CU1 G1 26.8 (6 or 8); CU2 S-phase 39.7 (9 or 8); CU2 G2-M 28.2 (8 or 6) / Panels a and c: the lane ratios printed under the western blots (a: 1.0, 0.64, 0.40; c: 1.0/0.65, 1.0/0.63, 1.0/0.53) were left out because they belong to blots and the picture prints no measure for them […]
# (§1) Reaction mixtures were incubated for the indicated time at 37 °C and stopped by the addition of 2X reducing SDS -PAGE sample buffer, separated on NuPAGE Novex 4 –12% Bis/Tris gradient gels (Invitrogen) and visualized by Western blotting using the indicated antibodies (Table S3).
# (§2) Cell culture. U2OS cells were cultured at 37 °C in a humidified atmosphere and 5% (v/v) CO2 in Dulbecco's Modified Eagle Medium (DMEM; Sigma-Aldrich) supplemented with 10% (v/v) fetal bovine serum (FBS), 100 units/ml of penicillin, […] of streptomycin and 292 μg/mL L-glutamine.
# (§3) Cell extract preparation and immunoblotting. U2OS cells were lysed in buffer containing 50 mM Tris-HCl pH 7.5, 2% SDS, 10 mM NEM, cocktail protease inhibitor (Roche) and phosphatase inhibitor cocktail followed by sonication 100 µg of extracts were boiled for 5 mins at 95 °C in 5X loading buffer and loaded onto NuPAGE Novex 4–12% Bis/Tris gradient gels
# (§4) (Invitrogen), or NuPAGE Novex 3-8% Tris/Acetate gradient gels (Invitrogen) for detection of mUb-FANCD2. After separation the gels were transferred to PVDF and the membranes were blocked with Tris-buffered saline containing 0.1% (v/v) Tween-20 (TBST) and 5% (v/v) bovine serum albumin (BSA) and incubated with the indicated primary and secondary antibodies. mUb-FANCD2 intensity was quantified using Image Studio (LI-COR).
# IncuCyte cell proliferation assays. 2000 U2OS cells were seeded per well in 96-well plates and treated with compounds 24 hours afterwards. After 1 hour of compound treatment, 15 µM carboplatin (Sigma-Aldrich) was added and the cells were cultured in an incubator with an IncuCyte microscopy -platform (Essen BioScience). Phase -contrast images were acquired every 6 hours for 8 days until DMSO-carboplatin treated cells reached >80% confluence. Cell proliferation was monitored as the occupied area (% confluence) of cell images over time and calculated as percentage confluence over time. Cell confluency […]
# U2OS cells = assay: IncuCyte cell proliferation assay; assay type: cell-based
# Protocol: Figure 4 Further cell-based assays with CU1 and CU2: (a, b) Representative immunofluorescence images of U2OS cells treated with HU (2.5 mM, 8 h) or cisplatin (10 μM, 8 h) in the presence or absence of CU1 (200 μM) or CU2 (500 μM). (c) Quantification of the number of FANCD2 foci in cells treated as in panels (a) and (b). Data accumulated over three independent experiments, each consisting of three technical replicas. (d) IncuCyte analysis of U2OS cells treated with or without carboplatin (15 μM) and CU2 (250 μM). Mean calculated from three wells, four images per well. (HU = DMSO + HU, cisplatin = DMSO + cisplatin).
# Finally, to investigate if CU1 and CU2 could sensitize cells to a more clinically relevant chemotherapeutic agent, quantitative live cell analyses were performed using the IncuCyte platform. As the FA pathway is involved in the repair of ICLs, cells were treated with the ICL-inducing chemotherapeutic drug, carboplatin. For this experiment, U2OS cells were seeded at a relatively low (<10%) density and preincubated with CU1 or CU2 for 1 h. Carboplatin was then added to the cells and images were taken every 6 h for 8 days in order to monitor growth and proliferation of the cells.
# as §1, §2, §3, §4
# IncuCyte cell proliferation assays. 2000 U2OS cells were seeded per well in 96-well plates and treated with compounds 24 hours afterwards. After 1 hour of compound treatment, 15 µM carboplatin (Sigma-Aldrich) was added and the cells were cultured in an incubator with an IncuCyte microscopy -platform (Essen BioScience). Phase -contrast images were acquired every 6 hours for 8 days until DMSO-carboplatin treated cells reached >80% confluence. Cell proliferation was monitored as the occupied area (% confluence) of cell images over time and calculated as percentage confluence over time. Cell confluency percentages were calculated using the integrated Cell Player software and results were analysed with Prism 6 (GraphPad Software).
Structure (SMILES),level of mUb-FANCD2 in response to HU [1],level of mUb-FANCD2 [1],combined effect with carboplatin on cell growth (U2OS cells; 50 μM CU1 with 15 μM carboplatin),concentrations that strongly inhibit cell growth (U2OS cells; IncuCyte) [µM],"level of mUb-FANCD2 in response to cisplatin ([1]; CU2 500 μM, cisplatin 10 μM for 6, 12 and 24 h)","confluency (U2OS cells; 250 μM CU2 combined with 15 μM carboplatin, after 8 days) [%]",effect on cell growth (U2OS cells; CU2 250 μM alone),"confluency (U2OS cells; CU2 250 μM alone, after 6 days) [%]","effect on cells upon longer cellular exposures (U2OS cells; CU2 500 μM, IncuCyte, up to 8 days)"
NCCN1C(=O)CC[C@H]2CN(Cc3cccc(-c4ccco4)c3)CC[C@H]21 [CU1],reduced the level of mUb-FANCD2,no significant decrease in the level of mUb-FANCD2,far less pronounced than that observed for CU2,> 50,,,,,
CCN1CCN(c2cc(C)nc3nc(CN4CCCCC4C)nn23)CC1 (stereo not drawn) [CU2],reduced the level of mUb-FANCD2,no significant decrease in the level of mUb-FANCD2,,,reduced the level of mUb-FANCD2,< 50,minimal effect on cell growth,100,cytotoxic/cytostatic
Cc1nnc(N(C)CC2CCN(CC(C)O)CC2)c(C#N)c1C (stereo not drawn) [CU9],,no significant decrease in the level of mUb-FANCD2,,,,,,,
